Data as given in ChEMBL document CHEMBL4765261, “Design, synthesis, and biological evaluation of heterotetracyclic quinolinone derivatives as anticancer agents targeting topoisomerases” (Eur J Med Chem, 2020).
pIC50: −log10 of the molar value. Activity calls are given as the source filed them. The rule behind the calls is not given here.

Experiments:
[1] = target: T1, DNA topoisomerase 1 (Homo sapiens) (UniProt P11387); assay: Inhibition of human recombinant topoisomerase 1 expressed in baculovirus-infected insect cells assessed as inhibition of DNA relaxation at 10 uM incubated for 30 mins by ethidium bromide staining based agarose gel electrophoresis method
T1 sequence (whole entry): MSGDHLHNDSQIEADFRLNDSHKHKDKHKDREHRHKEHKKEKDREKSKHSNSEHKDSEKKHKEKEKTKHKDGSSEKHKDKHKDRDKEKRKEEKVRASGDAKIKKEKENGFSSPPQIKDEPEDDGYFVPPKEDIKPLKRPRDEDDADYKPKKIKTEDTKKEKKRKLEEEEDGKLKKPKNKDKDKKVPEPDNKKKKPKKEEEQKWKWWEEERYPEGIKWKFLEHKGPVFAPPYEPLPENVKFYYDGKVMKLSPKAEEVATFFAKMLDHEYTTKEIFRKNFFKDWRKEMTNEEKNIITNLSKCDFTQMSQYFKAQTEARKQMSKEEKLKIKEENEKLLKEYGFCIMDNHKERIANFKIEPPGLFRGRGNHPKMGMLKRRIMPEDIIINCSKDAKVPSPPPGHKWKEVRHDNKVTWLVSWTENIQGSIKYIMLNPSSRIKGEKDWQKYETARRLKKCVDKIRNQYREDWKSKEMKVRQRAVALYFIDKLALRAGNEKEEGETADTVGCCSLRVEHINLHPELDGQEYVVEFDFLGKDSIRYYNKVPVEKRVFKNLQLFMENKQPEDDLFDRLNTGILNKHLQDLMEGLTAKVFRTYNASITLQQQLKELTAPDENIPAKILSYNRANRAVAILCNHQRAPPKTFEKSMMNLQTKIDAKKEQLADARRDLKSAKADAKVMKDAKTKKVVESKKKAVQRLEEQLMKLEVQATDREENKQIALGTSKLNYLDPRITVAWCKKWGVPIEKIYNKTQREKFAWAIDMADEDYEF

[2] = Cytotoxicity against human MDA-MB-231 cells assessed as reduction in cell viability at 10 uM after 72 hrs by MTT assay relative to control; assay type: cell-based; settings: read-out: INH
MDA-MB-231 [3] = assay: Anticancer activity against human MDA-MB-231 cells assessed as inhibition of cell proliferation measured after 72 hrs by MTT assay; assay type: functional, cell-based; settings: MDA-MB-231, 72 h
MDA-MB-468 = assay: Anticancer activity against human MDA-MB-468 cells assessed as inhibition of cell proliferation measured after 72 hrs by MTT assay; assay type: functional, cell-based; settings: MDA-MB-468, 72 h
MCF7 = assay: Anticancer activity against human MCF7 cells assessed as inhibition of cell proliferation measured after 72 hrs by MTT assay; assay type: functional, cell-based; settings: MCF7, 72 h
HCT-116 = assay: Anticancer activity against human HCT-116 cells assessed as inhibition of cell proliferation measured after 72 hrs by MTT assay; assay type: functional, cell-based; settings: HCT-116, 72 h
NCI-H1299 = assay: Anticancer activity against human H1299 cells assessed as inhibition of cell proliferation measured after 72 hrs by MTT assay; assay type: functional, cell-based; settings: NCI-H1299, 72 h
[4] = target: T1, DNA topoisomerase 1 (Homo sapiens); assay: Inhibition of human recombinant topoisomerase 1 expressed in baculovirus-infected insect cells assessed as inhibition of DNA relaxation at 3 uM incubated for 30 mins by ethidium bromide staining based agarose gel electrophoresis method
[5] = target: T1, DNA topoisomerase 1 (Homo sapiens); assay: Inhibition of human recombinant topoisomerase 1 expressed in baculovirus-infected insect cells assessed as inhibition of DNA relaxation at 1 uM incubated for 30 mins by ethidium bromide staining based agarose gel electrophoresis method
[6] = target: DNA topoisomerase 2-alpha (Homo sapiens) (UniProt P11388); assay: Inhibition of human recombinant topoisomerase 2alpha expressed in baculovirus-infected insect cells assessed as inhibition of DNA relaxation at 3 uM incubated for 45 mins by ethidium bromide staining based agarose gel electrophoresis method
[7] = target: DNA topoisomerase 2-alpha (Homo sapiens) (UniProt P11388); assay: Inhibition of human recombinant topoisomerase 2alpha expressed in baculovirus-infected insect cells assessed as inhibition of DNA relaxation at 1 uM incubated for 45 mins by ethidium bromide staining based agarose gel electrophoresis method
MDA-MB-231 [8] = assay: Cell cycle arrest in human MDA-MB-231 cells assessed as accumulation at sub-G1 phase at 10 uM after 24 hrs by propidium iodide staining-based flow cytometric analysis (reference value: 0.72%); assay type: functional
MDA-MB-231 [9] = assay: Cell cycle arrest in human MDA-MB-231 cells assessed as accumulation at sub-G1 phase at 20 uM after 24 hrs by propidium iodide staining based flow cytometric analysis (reference value: 0.72%); assay type: functional
[10] = target: T1, DNA topoisomerase 1 (Homo sapiens); assay: Poison activity at human recombinant topoisomerase I assessed as accumulation of supercoiled DNA at 10 uM measured after 30 mins by ethidium bromide staining based agarose gel electrophoresis
[11] = target: T1, DNA topoisomerase 1 (Homo sapiens); assay: Poison activity at human recombinant topoisomerase I assessed as accumulation of supercoiled DNA by measuring restricted DNA mobility at 30 uM measured after 30 mins by ethidium bromide staining based agarose gel electrophoresis
[12] = target: T1, DNA topoisomerase 1 (Homo sapiens); assay: Poison activity at human recombinant topoisomerase I in human MDA-MB-231 cells assessed as increase in chromatin incubated for 30 mins by Western blot analysis; assay type: cell-based
[13] = target: DNA topoisomerase 2-alpha (Homo sapiens) (UniProt P11388); assay: Poison activity at human recombinant topoisomerase II alpha in human MDA-MB-231 cells assessed as increase in chromatin incubated for 30 mins by Western blot analysis; assay type: cell-based
MDA-MB-231 [14] = assay: Cell cycle arrest in human MDA-MB-231 cells assessed as accumulation at sub-G1 phase at 2 uM after 24 hrs by propidium iodide staining-based flow cytometric analysis (reference value: 0.72%); assay type: functional
MDA-MB-231 [15] = assay: Cell cycle arrest in human MDA-MB-231 cells assessed as accumulation at sub-G1 phase at 4 uM after 24 hrs by propidium iodide staining based flow cytometric analysis (reference value: 0.72%); assay type: functional
MDA-MB-231 [16] = assay: Induction of apoptosis in human MDA-MB-231 cells assessed as increase in cleaved caspase-8 level incubated for 24 hrs by Western blot analysis; assay type: functional, cell-based
MDA-MB-231 [17] = assay: Induction of apoptosis in human MDA-MB-231 cells assessed as increase in cleaved caspase-9 level incubated for 24 hrs by Western blot analysis; assay type: functional, cell-based
MDA-MB-231 [18] = assay: Induction of cell cycle arrest in human […] assessed as increase in accumulation of cells at sub-G1 phase at 2.5 uM incubated for 24 hrs by propidium iodide based flow cytometry analysis; assay type: functional
MCF-10A [19] = assay: Induction of cell cycle arrest in human MCF-10A cells assessed as increase in accumulation of cells at sub-G1 phase at 2.5 uM incubated for 24 hrs by propidium iodide based flow cytometry analysis
MDA-MB-231 [20] = assay: Induction of DNA damage in human MDA-MB-231 cells assessed as phosphorylation of Ser 139 of histone H2AX measured after 24 hrs by western blotting analysis; assay type: functional, cell-based
MDA-MB-231 [21] = assay: Cell cycle arrest in human MDA-MB-231 assessed as increase accumulation at G2/M phase incubated for 12 hrs by propidium iodide staining based flow cytometric analysis relative to control; assay type: functional
MDA-MB-231 [22] = assay: Antiproliferative activity against human […] at 2.5 uM after 72 hrs by MTT assay relative to control; assay type: functional, cell-based
MCF-10A [23] = assay: Antiproliferative activity against human MCF-10A cells at 2.5 uM after 72 hrs by MTT assay relative to control; assay type: cell-based

Sequence of DNA topoisomerase 2-alpha (Homo sapiens) (P11388 whole entry): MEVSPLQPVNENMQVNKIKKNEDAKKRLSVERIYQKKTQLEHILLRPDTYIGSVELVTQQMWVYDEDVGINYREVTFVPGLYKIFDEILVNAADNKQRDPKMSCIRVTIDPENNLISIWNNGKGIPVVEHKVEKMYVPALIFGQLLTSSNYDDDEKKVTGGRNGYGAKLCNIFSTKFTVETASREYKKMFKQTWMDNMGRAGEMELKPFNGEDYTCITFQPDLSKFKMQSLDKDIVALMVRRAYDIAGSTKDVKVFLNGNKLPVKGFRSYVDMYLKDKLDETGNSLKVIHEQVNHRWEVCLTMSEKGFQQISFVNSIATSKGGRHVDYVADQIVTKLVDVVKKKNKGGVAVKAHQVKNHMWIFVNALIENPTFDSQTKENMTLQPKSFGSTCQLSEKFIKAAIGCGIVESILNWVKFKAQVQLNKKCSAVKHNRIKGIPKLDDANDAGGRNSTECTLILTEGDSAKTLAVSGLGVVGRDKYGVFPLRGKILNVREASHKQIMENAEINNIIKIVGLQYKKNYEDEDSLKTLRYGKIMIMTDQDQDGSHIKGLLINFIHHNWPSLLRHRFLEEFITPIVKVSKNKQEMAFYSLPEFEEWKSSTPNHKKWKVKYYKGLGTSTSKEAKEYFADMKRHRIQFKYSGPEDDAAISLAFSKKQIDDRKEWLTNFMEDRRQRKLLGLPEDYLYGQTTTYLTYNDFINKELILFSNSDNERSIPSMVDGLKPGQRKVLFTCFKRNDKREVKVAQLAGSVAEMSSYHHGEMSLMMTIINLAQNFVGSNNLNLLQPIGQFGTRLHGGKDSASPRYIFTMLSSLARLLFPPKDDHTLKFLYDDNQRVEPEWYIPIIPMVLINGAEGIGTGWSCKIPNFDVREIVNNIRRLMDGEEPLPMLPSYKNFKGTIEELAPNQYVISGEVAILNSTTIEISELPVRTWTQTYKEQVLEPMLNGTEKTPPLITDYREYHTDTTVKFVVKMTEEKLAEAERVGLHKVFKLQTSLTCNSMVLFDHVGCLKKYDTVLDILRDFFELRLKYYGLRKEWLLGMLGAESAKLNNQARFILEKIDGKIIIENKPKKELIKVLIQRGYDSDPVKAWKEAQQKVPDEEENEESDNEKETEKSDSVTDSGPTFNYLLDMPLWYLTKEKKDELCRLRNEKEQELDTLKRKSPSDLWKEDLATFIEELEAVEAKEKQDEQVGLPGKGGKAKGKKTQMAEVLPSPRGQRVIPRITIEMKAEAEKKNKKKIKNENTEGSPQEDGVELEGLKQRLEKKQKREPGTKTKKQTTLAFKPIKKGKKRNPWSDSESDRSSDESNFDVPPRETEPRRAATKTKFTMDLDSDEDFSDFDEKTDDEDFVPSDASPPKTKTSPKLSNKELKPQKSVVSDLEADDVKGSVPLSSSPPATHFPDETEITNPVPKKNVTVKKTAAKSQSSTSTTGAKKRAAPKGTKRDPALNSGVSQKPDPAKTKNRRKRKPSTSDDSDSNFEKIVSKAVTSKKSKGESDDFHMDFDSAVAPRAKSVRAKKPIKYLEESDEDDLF

In the case of NCCCNc1nc2ccccc2c2c(=O)c3cccc(Cl)c3sc12, the inhibition [1] was 100%, the cytotoxicity at 72 h, 10 µM [2] was over 95% and the pIC50 (MDA-MB-231 [3]) was 5.66. For the same compound, the pIC50 (MDA-MB-468) was 6.57, the pIC50 (MCF7) was 5.35 and the pIC50 (HCT-116) was 5.60. For the same compound, the pIC50 (NCI-H1299) was 5.43, the “inhibition of DNA relaxation (active/inactive)” value (from here on “inhibition … (active/inactive)”) [4] was “Active” and the inhibition [5] was “Active”. The inhibition [6] was “Active”, the inhibition [7] was 100% and the Activity (MDA-MB-231 [8]) was 9.8%. The Activity (MDA-MB-231 [9]) was 35.7%.

Cc1ccc2sc3c(NCc4ccccc4)nc4ccccc4c3c(=O)c2c1 gave a cytotoxicity at 72 h, 10 µM [2] of 21%.

Work on NCCCNc1nc2ccccc2c2c(=O)c3cc(Cl)ccc3sc12 yielded a cytotoxicity at 72 h, 10 µM [2] of over 95%, a pIC50 (MDA-MB-231 [3]) of 5.47 and a pIC50 (MDA-MB-468) of 5.96. It also gave a pIC50 (MCF7) of 5.36, a pIC50 (HCT-116) of 5.45 and a pIC50 (NCI-H1299) of 5.33. The “inhibition … (active/inactive)” value [4] was “Active”, the inhibition [5] was “Active” and the inhibition [6] was “Active”.

In the case of Cc1ccc2sc3c(NCCCN)nc4ccccc4c3c(=O)c2c1, the inhibition [1] was 100%, the cytotoxicity at 72 h, 10 µM [2] was over 95% and the pIC50 (MDA-MB-231 [3]) was 5.43. It also gave a pIC50 (MDA-MB-468) of 5.54, a pIC50 (MCF7) of under 5.30 and a pIC50 (HCT-116) of 5.37. For the same compound, the pIC50 (NCI-H1299) was under 5.30, the “inhibition … (active/inactive)” value [4] was “Active” and the inhibition [5] was “Active”. The inhibition [6] was “Active”.

NCCNc1nc2ccccc2c2c(=O)c3cc(F)cc(Cl)c3sc12 gave an inhibition [1] of 100%, a cytotoxicity at 72 h, 10 µM [2] of over 95% and a pIC50 (MDA-MB-231 [3]) of 5.94. It also gave a pIC50 (MDA-MB-468) of 6.66, a pIC50 (MCF7) of 6.10 and a pIC50 (HCT-116) of 6.28. The pIC50 (NCI-H1299) was 6.28, the “inhibition … (active/inactive)” value [4] was “Active” and the inhibition [5] was “Active”. The inhibition [6] was “Active”, the inhibition [7] was 100% and the Activity [10] was “Active”. For the same compound, the Activity [11] was “Active”, the Activity [12] was “Active” and the Activity [13] was “Active”. The Activity (MDA-MB-231 [14]) was 3.6%, the Activity (MDA-MB-231 [15]) was 39.4% and the Activity (MDA-MB-231 [16]) was “Active”. For the same compound, the Activity (MDA-MB-231 [17]) was “Active”, the Activity (MDA-MB-231 [18]) was 70.2% and the Activity (MCF-10A [19]) was 1.6%. For the same compound, the Activity (MDA-MB-231 [20]) was “Active”, the Activity (MDA-MB-231 [21]) was “Active” and the Activity (MDA-MB-231 [22]) was “Active”. The Activity (MCF-10A [23]) was “Non-Toxic”.

With CCCNc1nc2ccccc2c2c(=O)c3ccc(Cl)cc3sc12 the cytotoxicity at 72 h, 10 µM [2] was under 20%.

With CCCNc1nc2ccccc2c2c(=O)c3c(Cl)cccc3sc12 the cytotoxicity at 72 h, 10 µM [2] was under 20%.

O=c1c2cc(F)ccc2sc2c(NCc3cccnc3)nc3ccccc3c12 gave a cytotoxicity at 72 h, 10 µM [2] of 21%.

For COc1ccc(CNc2nc3ccccc3c3c(=O)c4cc(Cl)ccc4sc23)cc1, the cytotoxicity at 72 h, 10 µM [2] was 21%.

Work on CCNc1nc2ccccc2c2c(=O)c3cccc(F)c3sc12 yielded a cytotoxicity at 72 h, 10 µM [2] of under 20%.

CCNc1nc2ccccc2c2c(=O)c3cc(F)cc(Cl)c3sc12 showed a cytotoxicity at 72 h, 10 µM [2] of 21%.

CCNc1nc2ccccc2c2c(=O)c3cccc(OC)c3sc12 showed a cytotoxicity at 72 h, 10 µM [2] of 21%.

Compound COc1cccc2c(=O)c3c(sc12)c(NCc1ccccc1)nc1ccccc13 has a cytotoxicity at 72 h, 10 µM [2] of 21%.

Compound O=c1c2cc(F)ccc2sc2c(NCc3ccccc3)nc3ccccc3c12 has a cytotoxicity at 72 h, 10 µM [2] of 21%.

For O=C(Nc1nc2ccccc2c2c(=O)c3cc(Cl)ccc3sc12)c1ccccn1, the cytotoxicity at 72 h, 10 µM [2] was under 20%.

Work on CCCNc1nc2ccccc2c2c(=O)c3cccc(Cl)c3sc12 yielded a cytotoxicity at 72 h, 10 µM [2] of under 20%.

In the case of O=c1c2cccc(F)c2sc2c(NCc3ccccc3)nc3ccccc3c12, the cytotoxicity at 72 h, 10 µM [2] was under 20%.

With CCNc1nc2ccccc2c2c(=O)c3cc(C)ccc3sc12 the cytotoxicity at 72 h, 10 µM [2] was 21%.

In the case of COc1ccc2sc3c(NCCCN)nc4ccccc4c3c(=O)c2c1, the inhibition [1] was 100%, the cytotoxicity at 72 h, 10 µM [2] was over 95% and the pIC50 (MDA-MB-231 [3]) was 5.35. It also gave a pIC50 (MDA-MB-468) of 5.52, a pIC50 (MCF7) of under 5.30 and a pIC50 (HCT-116) of under 5.30. For the same compound, the pIC50 (NCI-H1299) was under 5.30, the “inhibition … (active/inactive)” value [4] was “Active” and the inhibition [5] was “Active”. For the same compound, the inhibition [6] was “Active”.

For CCCNc1nc2ccccc2c2c(=O)c3cc(OC)ccc3sc12, the Activity [1] was “Active” and the cytotoxicity at 72 h, 10 µM [2] was under 20%.

CCCNc1nc2ccccc2c2c(=O)c3cc(Cl)ccc3sc12 gave a cytotoxicity at 72 h, 10 µM [2] of 21%.

In the case of NCCCNc1nc2ccccc2c2c(=O)c3cc(F)ccc3sc12, the inhibition [1] was 100%, the cytotoxicity at 72 h, 10 µM [2] was over 95% and the pIC50 (MDA-MB-231 [3]) was 5.54. It also gave a pIC50 (MDA-MB-468) of 5.91, a pIC50 (MCF7) of 5.40 and a pIC50 (HCT-116) of 5.52. For the same compound, the pIC50 (NCI-H1299) was 5.52, the “inhibition … (active/inactive)” value [4] was “Active” and the inhibition [5] was “Active”. The inhibition [6] was “Active”.

CCCNc1nc2ccccc2c2c(=O)c3cc(F)ccc3sc12 showed a cytotoxicity at 72 h, 10 µM [2] of 21%.
